# Test system: patients with atrial fibrillation
# Assay: partial factorial, double-blind, randomized, multi-center, placebo-controlled trial of irbesartan for prevention of vascular events
# Format: in vivo, human
# From the text: Efficacy of irbesartan and its pharmaceutically acceptable salts versus placebo in patients with atrial fibrillation for the prevention of vascular events was provided via irbesartan during a partial factorial, double-blind, randomized, multi-center, placebo-controlled group trial.
# To be eligible for the trial, patients had to have all of the following: an evidence of atrial fibrillation, an evidence of high risk of vascular events, and a systolic blood pressure of at least 110 mm Hg.
# The evidence of atrial fibrillation is defined as follows: patient must have either permanent, paroxysmal or persistent atrial fibrillation. Patients in atrial fibrillation at baseline (unless cardiovascular surgery was performed in the previous month) had ECG documented atrial fibrillation at the time of enrollment. Patients not in atrial fibrillation at baseline (i.e. during screening period, between the screening visit and the day of randomization) had ECG documented atrial fibrillation on two separate occasions, at least 2 weeks apart in the six months prior to randomization (and not within one month of cardiovascular surgery).
# The evidence of high risk of vascular events is defined as follows: at least one of the following risk criteria must be present:
# Patients have been enrolled for over 4 years. Study drug treatment units (placebo or irbesartan) were such that each patient took two tablets of either placebo or 150 mg irbesartan form A, once daily, at night. After an up-titration period of 2 weeks, all patients were up-titrated to 300 mg. They took two tablets of either placebo or 150 mg irbesartan form A, once daily, at night.
# Results were calculated using non-parametric Kaplan-Meier estimate.
# Cox's proportional hazard model was used to estimate the hazard ratio also called relative risk.
# Relative risk (RR) is the ratio between the risk of having a hospitalization for heart failure for patients treated with irbesartan and the risk of having a hospitalization for heart failure for patients treated with placebo.
# The percentage of decrease of an event is calculated as follow: […]
structure (smiles),measurement,setting,value
"CCCCC1=NC2(CCCC2)C(=O)N1Cc1ccc(-c2ccccc2-c2nnn[nH]2)cc1 [irbesartan, 2-n-butyl-4-spirocyclopentane-1-[(2′-(tetrazol-5-yl)biphenyl-4-yl)methyl]-2-imidazolin-5-one]",risk of heart failure hospitalization,"4518 patients on irbesartan form A up-titrated to 300 mg once daily, Kaplan-Meier estimate, placebo 3.2% per year",2.7 % per year
same,number of stays in hospital,"irbesartan group, placebo 4059, p=0.004",3817
same,days hospitalized for cardiovascular reasons,"irbesartan group, placebo 39941, p=0.0001",36480 days
same,decrease of days hospitalized for cardiovascular reasons,irbesartan versus placebo,8.7%
same,relative risk (hazard ratio) of hospitalization for heart failure,"irbesartan versus placebo, Cox's proportional hazard model, confidence interval 0.76-0.98, p=0.018",0.86
same,reduction in the risk of heart failure hospitalization (1-RR),"irbesartan versus placebo, p=0.018",14%
same,hospitalization for heart failure events,"number of events in the irbesartan group (4518 patients), placebo 551",482
same,"reduction in the risk of the composite of stroke, non-CVS embolism and transient ischemic attacks","post hoc analysis, irbesartan versus placebo, p=0.02",13%
same,"risk of the composite of stroke, non-CVS embolism and transient ischemic attacks","post hoc analysis, placebo 3.4% per year",2.9 % per year
